# Reference: article PMC12454493, “Insight on novel sulfamoylphenyl pyrazole derivatives as anticancer carbonic anhydrase inhibitors” (Molecular Diversity, 2024)
# What was measured:
# [1] = tested on: PC-3; test: NCI-60 one-dose SRB screen (Prostate Cancer); format: cell-based; conditions: Homo sapiens, single dose 10 µM, 48 h, read-out: Growth inhibition percent (GI %)
# [2] = tested on: DU-145; test: NCI-60 one-dose SRB screen (Prostate Cancer); format: cell-based; conditions: Homo sapiens, single dose 10 µM, 48 h, read-out: Growth inhibition percent (GI %)
# [3] = tested on: EKVX; test: NCI-60 one-dose SRB screen (Non-Small Cell Lung Cancer); format: cell-based; conditions: Homo sapiens, single dose 10 µM, 48 h, read-out: Growth inhibition percent (GI %)
# [4] = tested on: A549/ATCC; test: as above; format: cell-based; conditions: Homo sapiens, single dose 10 µM, 48 h, read-out: Growth inhibition percent (GI %)
# [5] = tested on: NCI-H522; test: as above; format: cell-based; conditions: Homo sapiens, single dose 10 µM, 48 h, read-out: Growth inhibition percent (GI %)
# [6] = tested on: HOP-92; test: as above; format: cell-based; conditions: Homo sapiens, single dose 10 µM, 48 h, read-out: Growth inhibition percent (GI %)
# [7] = tested on: NCI-H23; test: as above; format: cell-based; conditions: Homo sapiens, single dose 10 µM, 48 h, read-out: Growth inhibition percent (GI %)
# [8] = tested on: NCI-H226; test: as above; format: cell-based; conditions: Homo sapiens, single dose 10 µM, 48 h, read-out: Growth inhibition percent (GI %)
# [9] = tested on: HOP-62; test: as above; format: cell-based; conditions: Homo sapiens, single dose 10 µM, 48 h, read-out: Growth inhibition percent (GI %)
# [10] = tested on: NCI-H322M; test: as above; format: cell-based; conditions: Homo sapiens, single dose 10 µM, 48 h, read-out: Growth inhibition percent (GI %)
# [11] = tested on: NCI-H460; test: as above; format: cell-based; conditions: Homo sapiens, single dose 10 µM, 48 h, read-out: Growth inhibition percent (GI %)
# [12] = tested on: HT29; test: NCI-60 one-dose SRB screen (Colon Cancer); format: cell-based; conditions: Homo sapiens, HT-29, single dose 10 µM, 48 h, read-out: Growth inhibition percent (GI %)
# [13] = tested on: HCC-2998; test: NCI-60 one-dose SRB screen (Colon Cancer); format: cell-based; conditions: Homo sapiens, single dose 10 µM, 48 h, read-out: Growth inhibition percent (GI %)
# [14] = tested on: KM12; test: NCI-60 one-dose SRB screen (Colon Cancer); format: cell-based; conditions: Homo sapiens, single dose 10 µM, 48 h, read-out: Growth inhibition percent (GI %)
# [15] = tested on: HCT-116; test: NCI-60 one-dose SRB screen (Colon Cancer); format: cell-based; conditions: Homo sapiens, single dose 10 µM, 48 h, read-out: Growth inhibition percent (GI %)
# [16] = tested on: HCT-15; test: NCI-60 one-dose SRB screen (Colon Cancer); format: cell-based; conditions: Homo sapiens, single dose 10 µM, 48 h, read-out: Growth inhibition percent (GI %)
# [17] = tested on: COLO 205; test: NCI-60 one-dose SRB screen (Colon Cancer); format: cell-based; conditions: Homo sapiens, single dose 10 µM, 48 h, read-out: Growth inhibition percent (GI %)
# [18] = tested on: SW-620; test: NCI-60 one-dose SRB screen (Colon Cancer); format: cell-based; conditions: Homo sapiens, single dose 10 µM, 48 h, read-out: Growth inhibition percent (GI %)
# [19] = tested on: MDA-MB-435; test: NCI-60 one-dose SRB screen (Melanoma); format: cell-based; conditions: Homo sapiens, single dose 10 µM, 48 h, read-out: Growth inhibition percent (GI %)
# [20] = tested on: UACC-257; test: NCI-60 one-dose SRB screen (Melanoma); format: cell-based; conditions: Homo sapiens, single dose 10 µM, 48 h, read-out: Growth inhibition percent (GI %)
# [21] = tested on: SK-MEL-5; test: NCI-60 one-dose SRB screen (Melanoma); format: cell-based; conditions: Homo sapiens, single dose 10 µM, 48 h, read-out: Growth inhibition percent (GI %)
# [22] = tested on: SK-MEL-2; test: NCI-60 one-dose SRB screen (Melanoma); format: cell-based; conditions: Homo sapiens, single dose 10 µM, 48 h, read-out: Growth inhibition percent (GI %)
# [23] = tested on: SK-MEL-28; test: NCI-60 one-dose SRB screen (Melanoma); format: cell-based; conditions: Homo sapiens, single dose 10 µM, 48 h, read-out: Growth inhibition percent (GI %)
# [24] = tested on: MALME-3M; test: NCI-60 one-dose SRB screen (Melanoma); format: cell-based; conditions: Homo sapiens, single dose 10 µM, 48 h, read-out: Growth inhibition percent (GI %)
# [25] = tested on: LOX IMVI; test: NCI-60 one-dose SRB screen (Melanoma); format: cell-based; conditions: Homo sapiens, single dose 10 µM, 48 h, read-out: Growth inhibition percent (GI %)
# [26] = tested on: M14; test: NCI-60 one-dose SRB screen (Melanoma); format: cell-based; conditions: Homo sapiens, single dose 10 µM, 48 h, read-out: Growth inhibition percent (GI %)
# [27] = tested on: CAKI-1; test: NCI-60 one-dose SRB screen (Renal Cancer); format: cell-based; conditions: Homo sapiens, single dose 10 µM, 48 h, read-out: Growth inhibition percent (GI %)
# [28] = tested on: SN12C; test: NCI-60 one-dose SRB screen (Renal Cancer); format: cell-based; conditions: Homo sapiens, single dose 10 µM, 48 h, read-out: Growth inhibition percent (GI %)
# [29] = tested on: UO-31; test: NCI-60 one-dose SRB screen (Renal Cancer); format: cell-based; conditions: Homo sapiens, single dose 10 µM, 48 h, read-out: Growth inhibition percent (GI %)
# [30] = tested on: 786-0; test: NCI-60 one-dose SRB screen (Renal Cancer); format: cell-based; conditions: Homo sapiens, single dose 10 µM, 48 h, read-out: Growth inhibition percent (GI %)
# [31] = tested on: RXF 393; test: NCI-60 one-dose SRB screen (Renal Cancer); format: cell-based; conditions: Homo sapiens, single dose 10 µM, 48 h, read-out: Growth inhibition percent (GI %)
# [32] = tested on: TK-10; test: NCI-60 one-dose SRB screen (Renal Cancer); format: cell-based; conditions: Homo sapiens, single dose 10 µM, 48 h, read-out: Growth inhibition percent (GI %)
# [33] = tested on: ACHN; test: NCI-60 one-dose SRB screen (Renal Cancer); format: cell-based; conditions: Homo sapiens, single dose 10 µM, 48 h, read-out: Growth inhibition percent (GI %)
# [34] = tested on: A498; test: NCI-60 one-dose SRB screen (Renal Cancer); format: cell-based; conditions: Homo sapiens, single dose 10 µM, 48 h, read-out: Growth inhibition percent (GI %)
# [35] = tested on: SF-539; test: NCI-60 one-dose SRB screen (CNS Cancer); format: cell-based; conditions: Homo sapiens, single dose 10 µM, 48 h, read-out: Growth inhibition percent (GI %)
# [36] = tested on: U251; test: NCI-60 one-dose SRB screen (CNS Cancer); format: cell-based; conditions: Homo sapiens, U-251, single dose 10 µM, 48 h, read-out: Growth inhibition percent (GI %)
# [37] = tested on: SNB-75; test: NCI-60 one-dose SRB screen (CNS Cancer); format: cell-based; conditions: Homo sapiens, single dose 10 µM, 48 h, read-out: Growth inhibition percent (GI %)
# [38] = tested on: SF-295; test: NCI-60 one-dose SRB screen (CNS Cancer); format: cell-based; conditions: Homo sapiens, single dose 10 µM, 48 h, read-out: Growth inhibition percent (GI %)
# [39] = tested on: SNB-19; test: NCI-60 one-dose SRB screen (CNS Cancer); format: cell-based; conditions: Homo sapiens, single dose 10 µM, 48 h, read-out: Growth inhibition percent (GI %)
# [40] = tested on: SF-268; test: NCI-60 one-dose SRB screen (CNS Cancer); format: cell-based; conditions: Homo sapiens, single dose 10 µM, 48 h, read-out: Growth inhibition percent (GI %)
# [41] = tested on: OVCAR-4; test: NCI-60 one-dose SRB screen (Ovarian cancer); format: cell-based; conditions: Homo sapiens, single dose 10 µM, 48 h, read-out: Growth inhibition percent (GI %)
# [42] = tested on: OVCAR-3; test: NCI-60 one-dose SRB screen (Ovarian cancer); format: cell-based; conditions: Homo sapiens, single dose 10 µM, 48 h, read-out: Growth inhibition percent (GI %)
# [43] = tested on: SK-OV-3; test: NCI-60 one-dose SRB screen (Ovarian cancer); format: cell-based; conditions: Homo sapiens, single dose 10 µM, 48 h, read-out: Growth inhibition percent (GI %)
# [44] = tested on: NCI/ADR-RES; test: NCI-60 one-dose SRB screen (Ovarian cancer); format: cell-based; conditions: Homo sapiens, single dose 10 µM, 48 h, read-out: Growth inhibition percent (GI %)
# [45] = tested on: OVCAR-5; test: NCI-60 one-dose SRB screen (Ovarian cancer); format: cell-based; conditions: Homo sapiens, single dose 10 µM, 48 h, read-out: Growth inhibition percent (GI %)
# [46] = tested on: OVCAR-8; test: NCI-60 one-dose SRB screen (Ovarian cancer); format: cell-based; conditions: Homo sapiens, single dose 10 µM, 48 h, read-out: Growth inhibition percent (GI %)
# [47] = tested on: IGROV1; test: NCI-60 one-dose SRB screen (Ovarian cancer); format: cell-based; conditions: Homo sapiens, IGROV-1, single dose 10 µM, 48 h, read-out: Growth inhibition percent (GI %)
# [48] = biological target: hCA XII (Homo sapiens, UniProt O43570); test: CA inhibitory activity, spectrophotometric p-NPA assay; format: biochemical; conditions: p-NPA substrate, pH 7.5, 25 °C, triplicate; read-out: IC50 (µM) ± SD hCA XII
# Sequence of hCA XII (O43570 25-354): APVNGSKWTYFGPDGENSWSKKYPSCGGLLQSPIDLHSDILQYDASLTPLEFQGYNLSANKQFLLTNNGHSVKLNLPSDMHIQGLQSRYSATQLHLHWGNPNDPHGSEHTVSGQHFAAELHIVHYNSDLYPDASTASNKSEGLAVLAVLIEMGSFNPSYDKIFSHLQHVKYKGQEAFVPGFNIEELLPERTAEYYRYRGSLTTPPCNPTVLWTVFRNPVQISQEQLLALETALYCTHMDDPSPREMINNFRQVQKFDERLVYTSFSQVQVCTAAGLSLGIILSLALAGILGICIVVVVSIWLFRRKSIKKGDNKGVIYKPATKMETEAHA
compound,measurement,setting,value
"Cc1ccc(-c2nn(-c3ccc(S(N)(=O)=O)cc3)cc2C(=O)OCC(=O)Nc2nnc(S(N)(=O)=O)s2)cc1 [Compound 6b, 2-Oxo-2-[(5-sulfamoyl-1,3,4-thiadiazol-2-yl)amino] ethyl 1-(4-sulfamoylphenyl)-3-(p-tolyl)-1H-pyrazole-4-carboxylate]",inhibition at 10 µM,[1],7.13%
same,inhibition at 10 µM,[2],< 5%
same,inhibition at 10 µM,[3],7.25%
same,inhibition at 10 µM,[4],< 5%
same,inhibition at 10 µM,[5],< 5%
same,inhibition at 10 µM,[6],22.2%
same,inhibition at 10 µM,[7],9.63%
same,inhibition at 10 µM,[8],13.3%
same,inhibition at 10 µM,[9],< 5%
same,inhibition at 10 µM,[10],< 5%
same,inhibition at 10 µM,[11],< 5%
same,inhibition at 10 µM,[12],< 5%
same,inhibition at 10 µM,[13],< 5%
same,inhibition at 10 µM,[14],< 5%
same,inhibition at 10 µM,[15],< 5%
same,inhibition at 10 µM,[16],< 5%
same,inhibition at 10 µM,[17],< 5%
same,inhibition at 10 µM,[18],< 5%
same,inhibition at 10 µM,[19],5.8%
same,inhibition at 10 µM,[20],< 5%
same,inhibition at 10 µM,[21],23%
same,inhibition at 10 µM,[22],< 5%
same,inhibition at 10 µM,[23],< 5%
same,inhibition at 10 µM,[24],10.9%
same,inhibition at 10 µM,[25],12.1%
same,inhibition at 10 µM,[26],< 5%
same,inhibition at 10 µM,[27],28%
same,inhibition at 10 µM,[28],< 5%
same,inhibition at 10 µM,[29],10.8%
same,inhibition at 10 µM,[30],5.95%
same,inhibition at 10 µM,[31],< 5%
same,inhibition at 10 µM,[32],< 5%
same,inhibition at 10 µM,[33],< 5%
same,inhibition at 10 µM,[34],7.37%
same,inhibition at 10 µM,[35],7.75%
same,inhibition at 10 µM,[36],< 5%
same,inhibition at 10 µM,[37],23.9%
same,inhibition at 10 µM,[38],< 5%
same,inhibition at 10 µM,[39],5.72%
same,inhibition at 10 µM,[40],9.87%
same,inhibition at 10 µM,[41],16%
same,inhibition at 10 µM,[42],< 5%
same,inhibition at 10 µM,[43],< 5%
same,inhibition at 10 µM,[44],< 5%
same,inhibition at 10 µM,[45],< 5%
same,inhibition at 10 µM,[46],< 5%
same,inhibition at 10 µM,[47],< 5%
same,IC50,[48],1.7 ± 0.064 µM
